From PubChem BioAssay (NCI)
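48-hour exposure; five concentrations; linearly interpolated endpoints. At the GI50, growth is halved. TGI denotes the concentration required for complete inhibition of growth.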 Where a SMILES comes first, the peptide text is derived from it. Bridges are numbered along the chain shown (N, C = ends). [ ]: non-standard residue; d: D form. The star is where a group is joined. ξ: configuration not given here. Cbz = O=C(OCc1ccccc1)*; ξD = NC(CC(=O)O)C(=O)O; Ac3c = NC1(C(=O)O)CC1; Boc = CC(C)(C)OC(=O)*; OtBu = CC(C)(C)O*

Tests used:
Test in all cases: growth of human tumour cells (NCI), 48 h
SR leukemia = test system: SR leukemia
UACC-257 melanoma = test system: UACC-257 melanoma
MDA-MB-231 breast = test system: MDA-MB-231 breast
ACHN renal = test system: ACHN renal
EKVX NSCLC = test system: EKVX NSCLC
OVCAR-5 ovarian = test system: OVCAR-5 ovarian
SF-268 CNS = test system: SF-268 CNS

SMILES	TGI (SR leukemia) [µM]	TGI (UACC-257 melanoma) [µM]	TGI (MDA-MB-231 breast) [µM]	TGI (ACHN renal) [µM]	TGI (EKVX NSCLC) [µM]	TGI (OVCAR-5 ovarian) [µM]	TGI (SF-268 CNS) [µM]	GI50 (SR leukemia) [µM]	GI50 (UACC-257 melanoma) [µM]	GI50 (MDA-MB-231 breast) [µM]	GI50 (ACHN renal) [µM]	GI50 (EKVX NSCLC) [µM]	GI50 (OVCAR-5 ovarian) [µM]	GI50 (SF-268 CNS) [µM]
CCOC(=O)C(NC(=O)CC)(Nc1ccc(S(=O)(=O)Nc2nc(C)cc(C)n2)cc1)C(F)(F)F (stereo unspecified)	> 100	> 100	> 100	> 100	> 100	> 100	> 100							
CCC(=O)NC(OCC1(CC)COC1)(C(F)(F)F)C(F)(F)F	> 100	> 100	> 100	> 100	> 100	> 100	> 100							
Cc1cc(S(=O)(=O)Nc2nc3ccccc3n2-c2ccccc2)c(S)cc1Cl	> 100	> 100	> 100	> 100	> 100	> 100	> 100							
CCN1CCCC(Nc2cc(C)nc(/N=C(/N)Nc3ccc(Cl)c(Cl)c3)n2)C1 (stereo unspecified)	2.88		3.84	5.56	11.4	8.11	5.63							
COc1nc(OC)nc(-c2cccc(F)c2)n1	17.5	30.7	30	30.7	18.6	28.5	32							
COc1cc(OC)c2c(O)c(S(=O)(=O)c3ccc(C)cc3)c(=O)oc2c1	> 100	> 100	> 100	> 100	> 100	> 100	> 100							
CC(C)C(C/C=C1/CC(CO)(COC(=O)C2CCCCC2)OC1=O)C(C)C (stereo unspecified)	> 100	78.7	37.4	30.2	42.8	40.7	33.8							
COC(=O)C1CCCCNC(=O)CCC(NC(=O)OCc2ccccc2)C(=O)N1 (stereo not drawn) (Cbz-Glu-Lys-OMe; lactam 1-2; configuration not given here)	> 100	> 100	> 100	> 100	> 100	> 100	> 100							
N=C(N)SCCCN	23.5	26	12.1	26.5	> 91.4	> 100	79.2							
Oc1ccc(Cl)cc1C1=N/C(=N\C/N=C2\N=C(c3cc(Cl)ccc3O)CC(c3ccccc3)N2)NC(c2ccccc2)C1 (stereo unspecified)	> 100	> 100	> 100	> 100	> 100	> 100	> 100							
Cc1ccc(SC[C@@]2(C(F)F)NC(=O)NC2=O)cc1	> 100	> 100	> 100	> 100	> 100	> 100	> 100							
Cn1c2c(c3ccccc31)CCN1C(=O)C3SC21C1C(=O)N(c2ccccc2)C(=O)C31 (stereo unspecified)	> 100	> 69.2	> 100	> 100	> 100	> 100	> 100							
C[C@@H]1CC[C@@H](C)[C@](C)(CCc2ccoc2)C/C=C\C=C/1C(=O)O	> 50	> 50	> 50	> 50	> 50	> 50								
O=S1(=O)C(c2ccccc2)=C(O)c2ccccc21		> 100	> 100	> 100	> 100	> 100	> 100							
O=c1[nH]cnc2sc(=S)c3c(c12)CCC3	35.5	94	> 100	33.6	> 100	> 100	> 100							
[N-]=[N+]=NC[C@H]1OCO[C@H](CN=[N+]=[N-])[C@H]2OCCOCCOc3ccccc3OCCOCCO[C@@H]21		> 100	> 100		> 100		> 100							
Cc1ccnc(NC(=S)Nc2cccc(Cl)c2)c1	> 100	> 100			> 100	> 100	> 100							
CCOP(=O)(OCC)C1(O)CC(n2cc(C)c(=O)[nH]c2=O)OC1CO (stereo unspecified)	> 100	> 100		> 100	> 100	> 100	> 100							
N#Cc1c(Nc2nc3ccccc3s2)c2ccccc2n2c1nc1ccccc12	> 100	> 100	> 100	> 100	> 100	> 100	> 100							
Cc1cc(O)ccc1C1(c2ccc(F)cc2)OC(=O)c2ccccc21 (stereo unspecified)	> 76.8	26.7	26.3	12.6	12.6	20.1	39.7							
CCOC(=O)/C(C#N)=C(/NNc1ccccc1)c1ccncc1C(=O)O	> 100	> 100	> 100	> 100	> 100	> 100	> 100							
COC(=O)C1(NC(=O)C(CC(=O)OC(C)(C)C)NC(=O)OC(C)(C)C)CC1 (stereo unspecified) (Boc-[ξD](OtBu)-[Ac3c]-OMe)		> 100	> 100	> 100	> 100	> 100	> 100							
S=C(N/N=C\c1ccccn1)N(Cc1ccccn1)Cc1ccccn1	> 39	39.5	> 49	5.13	17.2	63.9	30.9							
O=C1CCC2(O)C3Cc4ccc(Oc5nnnn5-c5ccccc5)c5c4C2(CCN3CC2CC2)C1O5 (stereo unspecified)	42.9	45.7	> 100	> 100	> 100	> 100	> 100							
C=C(Br)CNCC(=C)Br	> 100	98.6	> 100	> 100	> 100	> 100	> 100							
O=S(=O)(O)c1cc(O)c2c(O)c(N=Nc3cccc4ccccc34)c(S(=O)(=O)O)cc2c1	> 100	> 100	> 100	> 100	> 100	> 100	> 100							
CSc1nc(C#N)c(N)n1C	> 100	> 100	> 100	> 100	> 100	> 100	> 100							

SMILES	TGI (SR leukemia) [µM]	TGI (UACC-257 melanoma) [µM]	TGI (MDA-MB-231 breast) [µM]	TGI (ACHN renal) [µM]	TGI (EKVX NSCLC) [µM]	TGI (OVCAR-5 ovarian) [µM]	TGI (SF-268 CNS) [µM]	GI50 (SR leukemia) [µM]	GI50 (UACC-257 melanoma) [µM]	GI50 (MDA-MB-231 breast) [µM]	GI50 (ACHN renal) [µM]	GI50 (EKVX NSCLC) [µM]	GI50 (OVCAR-5 ovarian) [µM]	GI50 (SF-268 CNS) [µM]
CSc1ncc2c(n1)-c1ccccc1OC2NC(C)(C)C (stereo unspecified)	> 100	> 100	> 100	> 100	> 100	> 100	> 100							
CN(C)C(=O)C(F)(F)C(c1ccc(Br)cc1)C1C(=O)N(C)C(=O)N(C)C1=O (stereo unspecified)		> 100	> 100	> 100	> 100	> 100	> 100							
OC(CCN1CCN(CCOC(c2ccccc2)c2ccccc2)CC1)c1ccc(Br)cc1 (stereo unspecified)		12.6	25.3	22.9	23.5	28.3	30.3							
CC(C)(C)OC(=O)NCC(=O)NC1C/C(=N\O)c2sccc21 (stereo unspecified)	> 100	> 100	> 100		> 100	> 100	> 100							
CC(=O)c1ccc(N2CCN(C3=CC(=O)c4c(O)ccc(O)c4C3=O)CC2)cc1	> 100	> 100	94.8		> 100	> 100	> 100							
O=C1NC2CCCCC2N=C1/C(C(=O)c1ccccc1)=C(\O)c1ccccc1 (stereo unspecified)	92.3	> 100	83	> 100	> 100	> 100	> 100							
Clc1nc(Nc2nc3ccccc3[nH]2)nc(Cl)c1Cc1ccccc1	> 100	> 100	> 100	> 100	> 100	> 100	> 100							
CCOC(=O)c1c(N2CCOCC2)[nH]c(=O)c(C(c2cccs2)c2c(O)c(C(=O)OCC)c(N3CCOCC3)[nH]c2=O)c1O	> 100	> 100	> 100	> 100	> 100	> 100	> 100							
CC1(C)CCCCCCCCCC(C)(CCCCCCCCCCCCO)C1=O (stereo unspecified)	> 100	29.9	29.9	28.4	34.8	34.1	32							
CCCCc1ccc(-n2sc3ncccc3c2=O)cc1	60.4	43.7	32	23.5	25.2	40.6	47.4							
COc1cc(/C=C2\Cc3cc(OC)c(OC)cc3C2=O)cc(OC)c1		> 100	> 100	> 100	> 100	> 100	> 100							
COc1ccc(/C(=N/Nc2nc3ccccc3[nH]2)C(=O)O)cc1	> 100	> 100	> 100	> 100	> 100	> 100	> 100							
COc1cc(OC)cc(-c2n/c(=C\c3c(O)[nH]c4ccc(Cl)cc34)cc3c2=Nc2ccccc2-3)c1	5.59	> 100	13.4	20.7	37.8	63.8	11.4	2.24	> 100	2.84	5.37	13.6	20.5	3.35
Oc1nc(N/N=C/c2ccccc2)[nH]c1/C=C1\C=Nc2ccccc21		> 100	> 100	> 100	> 100	> 100	> 100							
C=CC(C)(C)c1cc([C@@H]2COc3cc(O)ccc3C2=O)c(O)c(O)c1OC	> 100	> 100	57.5	31.4	99.4	> 100	37.4							
Nc1ccc(-c2nc3ccc(F)cc3s2)cc1	> 100	> 100	64	66.6	> 100	73.6	> 100						27.2	
O=C(/C=C(\O)c1ccccc1)/C(=C/C(=O)c1ccccc1)NN=C(c1ccccc1)c1ccccc1	> 100	73.1	> 100	> 100	> 100	> 100	> 100							
Cc1nn(C)c2nc3ccc(Cl)cc3c(-c3ccccc3)c12	> 100	> 100	> 100	> 100	> 100	> 100	> 100							
COc1ccc2c(c1)CC1Cc3ccccc3CCN1C2 (stereo unspecified)	> 100	> 100	63.6	> 100	> 100	> 100	> 100							
N#CC12C(=O)N3C(=NC(c4ccccc4)NC3c3ccccc3)C1(C#N)C(c1ccccc1)NC1=C2CCCC1 (stereo unspecified)		> 100	> 100	> 100	> 100	> 100	> 100							
ONC1=Nc2ccccc2OCc2cc(Br)c(Br)cc2COc2ccccc2N=C1NO	15.2	56.6	35.5	> 43.3	47.2	42.8	> 57.4							
COc1cc(/C=N\NC(=O)C[N+](C)(C)C)cc(OC)c1OC	> 10	> 10	> 10	> 10		> 10	> 10							
O/N=C1/C2CC3CC1(c1ccccc1)CC(/C3=N/O)/C2=N\O (stereo unspecified)	> 100	> 100	> 100	> 100	> 100	> 100								
COc1cc(OC)cc(-n2c(N)c(-c3nc4ccccc4n3C)c3ccc([N+](=O)[O-])cc3c2=O)c1		> 100	> 100	> 100			> 100							
C/C=C/[C@H]1O[C@@](O)([C@@H](C)[C@H](O)[C@H](C)[C@H]2OC(=O)/C(OC)=C/C(C)=C/[C@@H](C)[C@@H](O)[C@@H](CC)[C@@H](O)[C@H](C)C/C(C)=C/C=C/[C@@H]2OC)C[C@H](OC2CC(O)C(OC(N)=O)C(C)O2)[C@@H]1C (stereo partly specified)		0.568	22.7	16.7	20.5	25.7	25							
COc1cc2c(cc1C)NC(=O)/C2=C\c1ccncc1	8.04	26.7		20.2	25.8	29.1	56.9							
Cc1ccc(S(=O)(=O)c2ccc([N+](=O)[O-])o2)cc1		3.61	4.78	3.03	7.79	4.77	46.6							
